Measurements as given in patent US20230293537A1, “USE OF ACETAMIDE DERIVATIVE IN PREVENTION AND TREATMENT OF ALZHEIMER'S DISEASE” (ACADEMY OF MILITARY MEDICAL SCIENCES, priority 2020, published 2023).

System: 5×FAD transgenic mice
Experiment: Morris water maze test of spatial learning and memory in 5×FAD transgenic mice
Type: in vivo
Source text: Animals: 5×FAD transgenic mice, male, SPF grade, initial body weight of 25-35 g; provided by Zhang Cheng Laboratory of Peking University. Male 5×FAD transgenic mice produced by breeding 5×FAD transgenic mice with WT mice and their littermate WT mice were used for the experiments, weighing 27-35 g. The 5×FAD transgenic mice were used as acute AD mouse model, the mice could develop AD pathological features at two or three months old, and behavioral changes appeared at five months old. The mice were administered at four months old, and after continuous administration for two months, the spatial learning and memory abilities of the mice were tested by water maze.
(1) Administration: 4-month-old mice were divided into four groups, namely WT (physiological saline), 5×FAD (physiological saline), 5×FAD (YL-IPA08, 0.3 mg/kg), 5×FAD (YL-IPA08, 1 mg/kg), intragastrically (i.g.) administered, once a day. After continuous administration for 8 weeks, the spatial learning and memory ability of the mice were tested by Morris water maze.
(2) Morris water maze test: The Morris water maze test was performed after 8 weeks of the administration of YL-IPA08 (0.3, 1 mg/kg). The water maze consisted of a circular stainless steel pool with a diameter of 120 cm and a depth of 60 cm, and the diameter of the escape platform was 10 cm. The day before the test, the mice were allowed to swim in the water maze for 30 s-60 s to acclimate to the environment. During the training, the mice were allowed to swim freely for 60 s to find the platform. If the mice found the hidden platform autonomously, they were allowed to stay there for 30 seconds, and then taken out. If the mice could not find the platform autonomously, they were guided onto the platform and allowed to stay there for 30 seconds, and then taken out. Training was performed twice a day for 5-7 days until the latency of WT mice to find the platform no longer decreased, and the latency, distance and path of the mice to find the hidden platform in the water maze were recorded. The test was performed 24 hours after the last training session, in which the platform was removed, and the mice were allowed to explore freely in the water maze for 1 minute, and the number of times the mice crossed the position of the platform and the time they stayed in the quadrant of the platform were recorded. There were 8-10 mice per group.
All data were presented by x±SEM. Data statistics and analysis were performed using GraphPad Prism 6.0. Significant differences were assessed by unpaired Student's t test, one-way ANOVA or two-way ANOVA followed by Tukey's multiple comparison test.

[1] = 5×FAD transgenic mice, YL-IPA08 0.3, 1 mg/kg i.g. once a day for 8 weeks, 6 days training, vs solvent control group of 5×FAD mice

## CCN(Cc1ccccn1)C(=O)Cc1c(-c2ccc(Cl)c(Cl)c2)nc2cc(C)ccn12.Cl [YL-IPA08, N-ethyl-N-(2-pyridylmethyl)-2-[2-(3,4-dichlorophenyl)-7-methyl-imidazo[1,2-a]pyridin-3-yl]-acetamide·hydrochloride]
5×FAD mice, 0.3, 1 mg/kg i.g. once a day for 8 weeks, Morris water maze
  learning and cognitive impairment in 5×FAD mice (overall conclusion): can improve learning and cognitive impairment
5×FAD transgenic mice, 0.3, 1 mg/kg i.g. once a day for 8 weeks, comparison of the mice in each group
  average swimming speed (test period): not significantly different
5×FAD transgenic mice, 0.3, 1 mg/kg i.g. once a day for 8 weeks, test 24 hours after last training, platform removed, 1 minute, vs solvent control group
  number of times the mice crossed the platform (test period): significantly higher
[1]
  distance to find the platform (water maze training): significantly shortened
  latency to find the platform (water maze training): significantly shortened
